Converted amounts (≈) assume the structure as drawn. One block for each compound: values may come before it.
Experiments:
Assay in all cases: ≥ marks a high value that may be exact or a test limit, other limits are often not marked, values filed in µg/mL are converted to µM
[1] = tested on: Escherichia coli JM109
[2] = tested on: Pseudomonas aeruginosa
[3] = tested on: Staphylococcus aureus ATCC 6538P
[4] = tested on: Staphylococcus aureus
[5] = tested on: Bacillus subtilis ATCC 6633
[6] = tested on: Candida albicans ATCC 36232
[7] = tested on: Corynebacterium diphtheriae ATCC 8024
[8] = tested on: Escherichia coli ATCC 2592
[9] = tested on: Micrococcus luteus ATCC 9341
[10] = tested on: Pseudomonas aeruginosa ATCC 9027
[11] = tested on: Shigella flexneri ATCC 203
[12] = tested on: Staphylococcus aureus ATCC 6538
[13] = tested on: Staphylococcus epidermidis ATCC 12228
[14] = tested on: Candida albicans
[15] = tested on: Escherichia coli NIHJ JC-2
[16] = tested on: Staphylococcus aureus FDA 209P JC-1
[17] = tested on: Bacillus cereus ATCC 11778
[18] = tested on: Enterococcus faecalis ATCC 29212
[19] = tested on: Escherichia coli ATCC 25922
[20] = tested on: Escherichia coli ATCC 35218
[21] = tested on: Escherichia coli O157
[22] = tested on: Salmonella enterica subsp. arizonae ATCC 13314
[23] = tested on: Streptococcus pyogenes ATCC 19615

MIC [1]: 2.6 µM (≈ 3 µg/mL)
MIC [2]: 3.46 µM (≈ 4 µg/mL)
MIC [3]: 1.73 µM (≈ 2 µg/mL)
MIC [4]: 27.7 µM (≈ 32 µg/mL)
SMILES: CC[C@H](C)[C@H](NC(=O)[C@H](C)NC(=O)[C@H](CC(C)C)NC(=O)[C@H](Cc1c[nH]c2ccccc12)NC(=O)[C@H](CC(C)C)NC(=O)[C@H](C)N)C(=O)N[C@@H](CCCN=C(N)N)C(=O)N[C@@H](CCCN=C(N)N)C(=O)N[C@@H](CCCN=C(N)N)C(N)=O [ALWLAIRRR]

MIC [5]: 13.2 µM (≈ 15 µg/mL)
MIC [6]: 13.2 µM (≈ 15 µg/mL)
MIC [7]: 6.59 µM (≈ 7.49 µg/mL)
MIC [8]: 6.59 µM (≈ 7.49 µg/mL)
MIC [9]: 11 µM (≈ 12.5 µg/mL)
MIC [10]: 44 µM (≈ 50 µg/mL)
MIC [11]: 26.4 µM (≈ 30 µg/mL)
MIC [12]: 26.4 µM (≈ 30 µg/mL)
MIC [4]: > 87.9 µM
MIC [13]: 13.2 µM (≈ 15 µg/mL)
SMILES: CC(C)[C@H](NC(=O)[C@H](CS)NC(=O)[C@@H](NC(=O)[C@H](CCCN=C(N)N)NC(=O)[C@H](CCCCN)NC(=O)CNC(=O)[C@H](CC(N)=O)NC(=O)[C@@H](N)CS)C(C)C)C(=O)N[C@@H](CS)C(=O)N[C@@H](CCCN=C(N)N)C(N)=O [CNGKRVCVCR]

MIC [5]: 0.615 µM (≈ 2 µg/mL)
MIC [14]: > 40 µM
MIC [15]: 1.23 µM (≈ 4 µg/mL)
MIC [16]: 2.46 µM (≈ 8 µg/mL)
SMILES: CC(C)C[C@H](NC(=O)CN)C(=O)N[C@@H](CC(C)C)C(=O)N[C@@H](CC(=O)O)C(=O)N[C@@H](CO)C(=O)N[C@@H](CC(C)C)C(=O)N[C@@H](CCCCN)C(=O)NCC(=O)N[C@@H](Cc1ccccc1)C(=O)N[C@@H](C)C(=O)N[C@@H](C)C(=O)N[C@H](C(=O)N[C@@H](C)C(=O)NCC(=O)N[C@@H](CCCCN)C(=O)NCC(=O)N[C@H](C(=O)N[C@@H](CC(C)C)C(=O)N[C@@H](CCC(N)=O)C(=O)N[C@@H](CO)C(=O)N[C@@H](CC(C)C)C(=O)N[C@@H](CC(C)C)C(=O)N[C@@H](CO)C(=O)N[C@H](C(=O)N[C@@H](C)C(=O)N[C@@H](CO)C(=O)N[C@H]1CSSC[C@@H](C(=O)O)NC(=O)[C@H]([C@@H](C)O)NC(=O)[C@H](CCCCN)NC(=O)[C@H](C)NC(=O)[C@H](CC(C)C)NC(=O)[C@H](CCCCN)NC1=O)[C@@H](C)O)C(C)C)[C@@H](C)O [GLLDSLKGFAATAGKGVLQSLLSTASCKLAKTC]

MIC [17]: ≥ 75 µM
MIC [18]: 150 µM (≈ 502 µg/mL)
MIC [19]: 150 µM (≈ 502 µg/mL)
MIC [20]: ≥ 150 µM
MIC [21]: ≥ 150 µM
MIC [9]: 19 µM (≈ 63.6 µg/mL)
MIC [10]: > 150 µM
MIC [22]: ≥ 150 µM
MIC [13]: 150 µM (≈ 502 µg/mL)
MIC [23]: ≥ 38 µM
SMILES: CC(C)C[C@H](NC(=O)[C@H](CCC(N)=O)NC(=O)[C@H](Cc1ccc(O)cc1)NC(=O)[C@H](CCCN=C(N)N)NC(=O)CNC(=O)[C@H](C)NC(=O)[C@H](C)NC(=O)[C@@H](NC(=O)[C@H](CO)NC(=O)[C@H](Cc1ccc(O)cc1)NC(=O)[C@@H](NC(=O)[C@H](CCCCN)NC(=O)[C@H](Cc1ccc(O)cc1)NC(=O)[C@H](CCCN=C(N)N)NC(=O)[C@@H]1CCCN1C(=O)[C@H](CC(C)C)NC(=O)[C@H](Cc1ccc(O)cc1)NC(=O)[C@@H](NC(=O)[C@H](CCCCN)NC(=O)[C@H](CC(C)C)NC(=O)[C@H](CCCN=C(N)N)NC(=O)[C@@H]1CCCN1)C(C)C)C(C)C)[C@@H](C)O)C(=O)N[C@@H](CC(C)C)C(=O)N[C@@H](CO)C(=O)N[C@@H](CCCN=C(N)N)C(=O)N[C@@H](Cc1ccc(O)cc1)C(=O)N[C@@H](Cc1c[nH]c2ccccc12)C(N)=O [PRLKVYLPRYKVYSTAAGRYQLLSRYW]

Reference: DBAASP
